{"source": "patent US8987212B2", "about": "“Oleanoyl peptide composition and method of treating skin aging” (priority 2007, dated 2015)", "key": {"Human osteosarcoma cells": {"tested_on": "Human osteosarcoma cells", "experiment": "Collagen enhancement by Sirius Red staining", "type": "cell-based", "experimental": "Collagen enhancement was determined by using Sirius Red stain that binds with a greater specificity to Collagen type I and Collagen type III of the extracellular matrix. The stain bound to the collagen is dissolved and the optical density (OD) is measured spectrophotometrically using a Fluostar optima microtiter plate reader at 544 nm. The OD of the stain bound to collagen is directly proportional to the collagen content in the cells.\nHuman osteosarcoma cells from human bone were used for collagen enhancement studies. The cells were seeded with a seeding density of 10000 cells per well of a 24 well plate. Confluent monolayers of cells were initially treated with varying non cytotoxic concentrations of Oleanoyl peptide and vehicle (control) in the culture medium. For each concentration, 4 replicates were maintained and the analysis was performed twice such that the ‘n’ value is 8. After sample treatment, the cells were incubated in a CO2 incubator for 48 hrs. The cells were then developed by Sirius red staining technique to analyze the collagen enhancement. The cells were washed extensively with PBS. The cells were fixed using Bouin's fluid containing 1.3% picric acid, 35% formaldehyde and glacial acetic acid in 15:5:1 ration by incubating with 1 ml of Bouin's fluid per well for 1 hr at RT. The fixative is then removed by suction with micropipette and the cells were washed under running tap water for 15 minutes. After air drying the culture plate, the cells were stained using 0.1% Sirius red stain in 1.3% picric acid. 1 ml per well Sirius red stain was added and the cells were incubated for 1 hr under mild shaking of 70 RPM at RT in Orbitek Shaker. The stain was then removed by suction and the cells were extensively washed with 0.01N HCl to remove unbound dye. The dye bound to collagen was then dissolved in 0.2 ml of 0.1N NaOH per well for 30 minutes under mild shaking of 70 RPM in Orbitek Shaker at RT. The dye was then transferred to 96 well microplate and the OD was read at 544 nm in Fluostar Optima microplate reader.\nThe percentage enhancement in collagen with respect to the untreated cells considering the OD of untreated cells as optimal under normal conditions is calculated as follows, % enhancement in […]=[(100/C)×T]−100 Where C=absorbance due to collagen in untreated cells\nT=absorbance due to collagen in sample treated cells"}, "[1]": {"experiment": "DPPH free radical scavenging assay", "details": "result in words", "experimental": "The DPPH assay is often used to evaluate the ability of antioxidants to scavenge free radicals which are known to be a major factor in biological damages caused by oxidative stress. This assay is known to give reliable information concerning the antioxidant ability of the tested compounds. The assay is based on the color change of the stable free radical DPPH from purple to yellow as the radical is quenched by the antioxidant.\nThe assay mixture tubes containing 1.5 ml of 0.1 mM DPPH methanolic solution and varying concentrations of the sample in a total volume of 3 ml were incubated at 37° C. for 30 minutes in a shaking water bath. The reduction in absorbance which is directly proportional to the radical scavenging is measured spectrophotometrically at 517 nm. […] The percentage of scavenging is calculated as follows, % scavenging=[(C−T)/C]×100 Where C=absorbance in the absence of inhibitor\nT=absorbance in the presence of inhibitor"}, "TNF α": {"tested_on": "TNF α", "experiment": "TNF α inhibition in LPS-stimulated human whole blood (ELISA)", "type": "cell-based", "details": "for TNF α inhibition (IC50 μg/ml): human whole blood, LPS 1 ng/mL", "excerpt": "For TNF α inhibitory study, human whole blood is used. In whole blood assay, monocytes appear to be the main source of TNF-α on lipopolysaccharide (LPS) stimulation. Monocyte and macrophages are a major source of TNF-α in addition to other cell types like eosinophils, mast cells, peripheral lymphocytes and granulocytes. The activation of inflammatory cells is influenced by the intracellular levels of c-AMP which are regulated by the phosphodiesterase isoenzyme. […] After stimulation, the assay employs the quantitative sandwich enzyme immunoassay technique. A monoclonal antibody specific for TNF-α has been pre-coated onto a microplate. TNF-α present in the sample is bound by the immobilized antibody. After washing away any unbound substances, an enzyme-linked polyclonal antibody specific for TNF-α is added. Following a wash to remove any unbound antibody-enzyme reagent, a substrate solution is added to the wells and colour develops in proportion to the amount of TNF-α bound in the initial step. The colour development is stopped and the intensity of the colour is directly proportional to the TNF-α content.\nHeparinized blood from healthy donors was diluted 1:3 in RPMI 1640 culture medium containing 10% FBS. […] 0.1% DMSO was used as vehicle for water insoluble samples. After pre-incubation, the whole blood cells were stimulated by 1 ng/mL LPS for the release of TNF α from the macrophages by incubating for 5 hr at 37° C. in an incubator with 5% COP. The samples were then centrifuged at 3000 g for 3 minutes at 4° C. and the supernatant was assayed for TNF α content by using the TNF α Elisa kit. 200 μL of supernatant from all the tubes was transferred into microtiter plate in respective wells (Pre-coated mouse monoclonal antibody microplate) followed by the addition of 50 μL of assay diluents in all the wells. After incubation for 2 hr at room temperature, the wells were washed thoroughly with wash buffer provided and then 200 μL of conjugate was added to each well. The plate was incubated for 2 hr at room temperature. After washing again, 200 μL of substrate solution was added to each well and incubated for 20 minutes at room temperature. 50 μL of Stop Solution to each well which will cause the colour change in the wells from blue to yellow was added. The optical density was read at 450 nm which is directly proportional to TNF α content and the percentage of inhibition of TNF α content on treatment with sample was calculated with respect to that of the untreated cells.\nT=absorbance due to TNF α in the presence of inhibitor"}, "LTB4": {"tested_on": "LTB4", "experiment": "LTB4 inhibition (same procedure as TNF α)", "type": "cell-based, human", "details": "result in words", "excerpt": "The above procedure is also followed for determining LTB4 inhibition by Oleanoyl peptide. From the results tabulated in table 1, it is clear that Oleanoyl peptide is a better TNF α and LTB4 inhibitor."}, "[2]": {"tested_on": "Collagenase Type IV from Clostridium histolyticum", "details": "for Collagenase inhibition, % inhibition: at 500 μg/ml"}, "[3]": {"biological_target": "porcine pancreatic elastase (Sus scrofa, UniProt P00772)", "sequence (P00772 27-266)": "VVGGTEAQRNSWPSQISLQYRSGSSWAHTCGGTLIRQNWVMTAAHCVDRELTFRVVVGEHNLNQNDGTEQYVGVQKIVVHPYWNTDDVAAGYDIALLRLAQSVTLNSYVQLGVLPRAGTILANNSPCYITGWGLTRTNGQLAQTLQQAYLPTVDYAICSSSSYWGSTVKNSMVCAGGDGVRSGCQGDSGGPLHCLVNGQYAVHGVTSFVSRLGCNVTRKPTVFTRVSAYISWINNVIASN", "experiment": "EnzChek Elastase Assay, elastase inhibitory potential", "details": "for Elastase inhibition (IC50 μg/ml): porcine pancreatic elastase 0.1 U/ml, DQ Elastin, 30 minutes", "text": "The EnzChek kit contains DQelastin, fluorescein conjugated soluble bovine neck ligament elastin. This substrate is efficiently digested by elastase to yield highly fluorescent peptides. […] Elastase used for the assay is purified from porcine pancreas.\nT=absorbance due to elastase activity in the presence of inhibitor"}, "[4]": {"tested_on": "Interleukin-1beta (IL-1β)", "experiment": "Extracellular IL-1β from LPS-challenged human neutrophils", "type": "cell-based", "details": "test sample 100 μg/ml", "experimental": "(§1) Experimental observations were made in human neutrophil that were challenged with LPS. […] Rolipram at 100 μg/ml dose level was used as a standard drug to observe the authenticity and reproducibility of the experimental design."}, "Interleukin-6 (IL-6)": {"tested_on": "Interleukin-6 (IL-6)", "experiment": "Extracellular IL-6 from LPS-challenged human neutrophils", "type": "cell-based", "details": "test sample 100 μg/ml", "experimental": "as §1"}, "Prostaglandin E2 (PGE2)": {"tested_on": "Prostaglandin E2 (PGE2)", "experiment": "Extracellular PGE2 from LPS-challenged human neutrophils", "type": "cell-based", "details": "test sample 100 μg/ml", "experimental": "as §1\n(§2) The Oleanoyl peptide was also screened for NO and PGE2 expression."}, "Nitric Oxide (NO)": {"tested_on": "Nitric Oxide (NO)", "experiment": "Extracellular nitric oxide from LPS-challenged human neutrophils", "type": "cell-based", "details": "test sample 100 μg/ml", "experimental": "as §1, §2"}, "[5]": {"tested_on": "B16F1 mouse melanoma cells", "experiment": "Melanin inhibition in α-MSH induced melanoma cells", "type": "cell-based", "details": "α-MSH induced, 9 days; for IC50: Mus musculus, B16-F1, 216 h, read-out: Melanin inhibition IC50 (μg/ml), Individual active", "experimental": "B16F1 mouse melanoma cells were seeded in a 6 well microtiter plate at a seeding density of 5000 cells per well in 2 ml DMEM medium per well. After 24 hours of incubation in a CO2 incubator, melanin production is induced by 0.1 nM ∝-MSH by replacing the medium with medium containing ∝-MSH. The cells were then treated with varying concentrations of sample (composition containing oleanoyl peptide and stilbenes/licorice extract/THC) over a period of 9 days with renewal of ∝-MSH containing medium and sample at regular intervals of 3 days. Control wells were maintained without sample treatment and only with the vehicle used for sample preparation. After the incubation period, the medium was removed and the cells were scraped and washed in PBS. Thereafter, melanin was extracted by 1N NaOH in boiling water bath for 5 minutes. The absorbance of the melanin extract was read at 405 nm in a microplate reader. The inhibitory effect of the sample is calculated based on the decrease of melanin formation.\nT=absorbance due to melanin in the presence of inhibitor"}, "[6]": {"details": "at 1.25 ppm, 48 hrs, vs untreated cells"}}, "note": "Where a SMILES comes first, the peptide text is derived from it. The star is where a group is joined. Palmitoyl = CCCCCCCCCCCCCCCC(=O)*", "data": [{"compound": "CCCCCCCCCCCCCCCC(=O)N[C@@H](CCCCN)C(=O)N[C@H](C(=O)N[C@H](C(=O)N[C@@H](CCCCN)C(=O)N[C@@H](CO)C(=O)O)[C@@H](C)O)[C@@H](C)O", "note": "[Pal-Lys-Thr-Thr-Lys-Ser, palmitoyl-lysyl-threonyl-threonyl-lysyl-serine] (Palmitoyl-KTTKS-OH)", "values": [{"measurement": "enhancement in collagen", "setting": "Human osteosarcoma cells; [6]", "value": 11, "unit": "%"}, {"measurement": "Anti-oxidant activity by DPPH Method", "setting": "[1]", "value": "Nil"}, {"measurement": "TNF α inhibition (IC50 μg/ml)", "setting": "TNF α", "value": "Nil"}, {"measurement": "LTB4 inhibition", "setting": "LTB4", "value": "Nil"}, {"measurement": "Collagenase inhibition, % inhibition", "setting": "[2]", "value": 38, "unit": "%"}, {"measurement": "inhibition at 500 µg/mL", "setting": "[3]; read-out: Elastase inhibition, % inhibition", "value": 16, "unit": "%"}]}, {"compound": "COc1ccc(C2CNC(=O)C2)cc1OC1CCCC1", "note": "(stereo not drawn) [Rolipram, reference compound]", "values": [{"measurement": "Concentration of IL-1β produced (pg/ml) Mean ± S.E.", "setting": "[4]", "value": "67.52 ± 2.07", "unit": "pg/mL"}, {"measurement": "% activity IL-1β expression against LPS control", "setting": "[4]; ↓ = inhibition", "value": "51.62↓ %"}, {"measurement": "Concentration of IL-6 produced (pg/ml) Mean ± S.E.", "setting": "Interleukin-6 (IL-6)", "value": "72.65 ± 2.07", "unit": "pg/mL"}, {"measurement": "% activity IL-6 expression against LPS control", "setting": "Interleukin-6 (IL-6); ↓ = inhibition", "value": "48.92↓ %"}, {"measurement": "Concentration of PGE2 produced (pg/ml) Mean ± S.E.", "setting": "Prostaglandin E2 (PGE2)", "value": "265.71 ± 10.09", "unit": "pg/mL"}, {"measurement": "% activity PGE2 expression against LPS control", "setting": "Prostaglandin E2 (PGE2); ↓ = inhibition", "value": "65.44↓ %"}, {"measurement": "Concentration of NO produced (μmol/ml) Mean ± S.E.", "setting": "Nitric Oxide (NO)", "value": "24.83 ± 2.07", "unit": "µmol/mL"}, {"measurement": "% activity NO expression against LPS control", "setting": "Nitric Oxide (NO); ↓ = inhibition", "value": "43.98↓ %"}]}, {"compound": "CC1(C)CC[C@]2(C(=O)O)CC[C@]3(C)C(=CC[C@@H]4[C@@]5(C)CC[C@H](O)C(C)(C)[C@@H]5CC[C@]43C)[C@@H]2C1", "note": "[Oleanolic acid]", "values": [{"measurement": "enhancement in collagen", "setting": "Human osteosarcoma cells; result in words, concentration not given", "value": "did not show any enhancement"}, {"measurement": "Anti-oxidant activity by DPPH Method", "setting": "[1]", "value": "Nil"}, {"measurement": "inhibition at 100 µg/mL", "setting": "TNF α; Homo sapiens, at 100 μg/ml", "value": 17, "unit": "%"}, {"measurement": "LTB4 inhibition", "setting": "LTB4", "value": "Nil"}, {"measurement": "Collagenase inhibition (IC50 μg/ml)", "setting": "[2]; Collagenase Type IV 0.2 U/ml, DQ gelatin, 30 minutes", "value": 129, "unit": "µg/mL"}]}, {"compound": "Oc1cc(O)cc(/C=C/c2ccc(O)cc2O)c1", "note": "[Oxyresveratrol]", "values": [{"measurement": "IC50", "setting": "[5]", "value": "8 ± 1.2", "unit": "µg/mL"}]}, {"compound": "COc1cc(/C=C/c2ccc(O)cc2)cc(OC)c1", "note": "[Pterostilbene]", "values": [{"measurement": "IC50", "setting": "[5]", "value": "0.6 ± 0.1", "unit": "µg/mL"}]}, {"compound": "COc1cc(/C=C/c2ccc(O)c(O)c2)cc(OC)c1", "note": "[3Hydroxypterostilbene]", "values": [{"measurement": "Melanin inhibition IC50 (μg/ml), Individual active", "setting": "[5]", "value": "0.8 ± 0.22", "unit": "µg/mL"}]}, {"compound": "C[C@@H](O)[C@H](NC(=O)[C@@H](NC(=O)[C@@H](N)CCCCN)[C@@H](C)O)C(=O)N[C@@H](CCCCN)C(=O)N[C@@H](CO)C(=O)O", "note": "[Peptide of SEQ ID No. 1, Lysyl-Threonyl-Threonyl-Lysyl-Serine] (H-KTTKS-OH)", "values": [{"measurement": "enhancement in collagen", "setting": "Human osteosarcoma cells; [6]", "value": 5, "unit": "%"}, {"measurement": "Anti-oxidant activity by DPPH Method", "setting": "[1]", "value": "Nil"}, {"measurement": "TNF α inhibition (IC50 μg/ml)", "setting": "TNF α", "value": "Nil"}, {"measurement": "LTB4 inhibition", "setting": "LTB4", "value": "Nil"}, {"measurement": "Collagenase inhibition, % inhibition", "setting": "[2]", "value": 24, "unit": "%"}, {"measurement": "Elastase inhibition (IC50 μg/ml)", "setting": "[3]", "value": "Nil"}, {"measurement": "Elastase inhibition (IC50 μg/ml)", "setting": "[3]; listed as peptide of SEQ ID NO: 1", "value": "did not show elastase inhibition"}]}, {"compound": "Oc1ccc(C=Cc2cc(O)cc(O)c2)cc1", "note": "[Resveratrol]", "values": [{"measurement": "IC50", "setting": "[5]", "value": "3 ± 0.2", "unit": "µg/mL"}]}]}
